Measured values taken from patent publication US4638000A, “Condensed seven-membered ring compounds, their production and use” (Takeda Chemical Industries, Ltd., priority 1984, dated 1987).
Counter-ions that a name gives are not always drawn.

How the values were obtained:
[1] = molecular target: T1, Angiotensin I Converting Enzyme (ACE) (Oryctolagus cuniculus, UniProt P12822); experiment: Inhibition of Angiotensin I Converting Enzyme (ACE), HHL substrate, modified Cushman method; format: biochemical; settings: compound concentration 0.1 μM; substrate hippuryl-L-histidyl-L-leucine; 37° C., 1 hour; read-out: ACE inhibitory activity (%)
T1 sequence (P12822 34-1310): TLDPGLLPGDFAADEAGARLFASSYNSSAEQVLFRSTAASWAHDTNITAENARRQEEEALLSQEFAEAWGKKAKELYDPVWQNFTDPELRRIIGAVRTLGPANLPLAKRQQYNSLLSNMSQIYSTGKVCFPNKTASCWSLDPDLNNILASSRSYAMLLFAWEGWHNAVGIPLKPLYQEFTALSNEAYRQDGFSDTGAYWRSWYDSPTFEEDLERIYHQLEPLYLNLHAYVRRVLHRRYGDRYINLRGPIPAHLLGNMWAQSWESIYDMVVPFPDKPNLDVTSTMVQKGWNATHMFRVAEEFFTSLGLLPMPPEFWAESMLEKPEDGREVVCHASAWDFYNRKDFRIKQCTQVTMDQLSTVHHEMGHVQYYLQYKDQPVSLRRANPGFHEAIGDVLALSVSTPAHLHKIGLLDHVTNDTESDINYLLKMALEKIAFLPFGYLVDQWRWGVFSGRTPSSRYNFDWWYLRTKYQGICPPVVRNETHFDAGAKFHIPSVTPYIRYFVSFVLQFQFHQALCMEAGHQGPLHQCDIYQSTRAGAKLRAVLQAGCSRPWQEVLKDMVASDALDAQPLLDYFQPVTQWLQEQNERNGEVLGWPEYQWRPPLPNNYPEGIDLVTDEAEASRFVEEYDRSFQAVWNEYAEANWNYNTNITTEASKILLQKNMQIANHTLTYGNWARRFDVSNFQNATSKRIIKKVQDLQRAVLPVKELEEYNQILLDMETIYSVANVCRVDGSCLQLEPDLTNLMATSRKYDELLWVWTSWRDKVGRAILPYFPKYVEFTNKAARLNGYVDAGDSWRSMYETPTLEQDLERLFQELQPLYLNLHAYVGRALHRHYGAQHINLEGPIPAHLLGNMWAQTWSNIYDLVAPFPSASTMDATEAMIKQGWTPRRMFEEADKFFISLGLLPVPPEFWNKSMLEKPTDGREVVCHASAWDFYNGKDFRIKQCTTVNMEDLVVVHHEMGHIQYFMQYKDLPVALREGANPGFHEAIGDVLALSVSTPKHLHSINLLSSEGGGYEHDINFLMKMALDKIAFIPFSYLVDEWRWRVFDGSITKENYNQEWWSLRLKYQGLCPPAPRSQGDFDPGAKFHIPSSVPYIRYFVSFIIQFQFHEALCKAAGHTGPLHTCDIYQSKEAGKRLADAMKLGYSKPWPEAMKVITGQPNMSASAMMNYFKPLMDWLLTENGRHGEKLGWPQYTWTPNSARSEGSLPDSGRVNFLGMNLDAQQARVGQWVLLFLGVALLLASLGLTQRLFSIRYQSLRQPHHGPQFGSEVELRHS
Procedure: The experiment was conducted in accordance with a modification of the method described by Cushman et al. (Biochemical Pharmacology, Vol. 20, pp. 1637, 1971). Thus, using hippuryl-L-histidyl-L-leucine (HHL) as the substrate, the ACE inhibitory activity was determined in terms of percent inhibition on the amount of hippuric acid produced by ACE when the compound of the present invention was added. A solution of the compound of the present invention in 0.02 to 5% dimethylsulfoxide-100 mM borate-HCl buffer solution (pH 8.3, containing 300 mM sodium chloride) was added to 100 μl of ACE (protein concentration, 20 mg/ml) and 100 μl of 1.25 mM HHL. In this experiment, a borate-HCl buffer solution containing dimethylsulfoxide at a concentration equal to that of the test solution was used as a control. After warming the solution at 37° C. for 1 hour, 150 μl of 1N hydrochloric acid was added to the solution to terminate the reaction. After 0.8 ml of ethyl acetate was added, the solution was centrifuged at 11,500 rpm for 2 minutes. A 0.5 ml aliquot was separated from the ethyl acetate layer and dried at a temperature of not more than 40° C. under nitrogen gas streams. The residue was mixed thoroughly with 4.5 ml of distilled water, and the mixture was subjected to colorimetry at a wavelength of 228 nm.

[2] = test system: hypertensive reaction by angiotensin I; experiment: Effect against hypertensive activity of angiotensin I in rats; format: in vivo; settings: 300 μg/kg i.v., rat, corrected by angiotensin II response
Procedure: Male rats (Sprague-Awley) weighing 300 to 400 g which were fed under free access to drinking water and feed were used as experimental animals. The rats were anesthetized with intraperitoneal administration of pentobarbital sodium (50 mg/kg) on the day before the test day, and a polyethylene tube was inserted into each of the femoral artery for measurement of blood pressure and the femoral vein for injection of angiotensin I and II. And the tubes were fixed.
On the test day, an average blood pressure in the control phase was measured by an electric hemodynamometer (MPU-0.5-290-0-III model, manufactured by NEC-Sanei, Japan) and recorded by a polygraph (NEC-Sanei, Tupe 365, or Nippon Kohden Type RM-45), and thereafter, angiotensin I and then angiotensin II were injected through the femoral vein at a dose of 300 ng/kg and 100 ng/kg, respectively, to measure the hypertensive activity. Then, 300 μg/kg of the compound of the present invention was administered intravenously as an isotonic saline solution, and 5, 10, 30, 60, 90 and 120 minutes after the administration, angiotensin I and II were injected repeatedly to trace hypertensive reactions. In calculating the percent inhibition to the hypertensive activity of angiotensin I, the percent inhibitory value was corrected based on the variation with time in the hypertensive reaction by angiotensin II.

[3] = 5 min. after the administration
[4] = 10 min. after the administration
[5] = 30 min. after the administration
[6] = 60 min. after the administration
[7] = 90 min. after the administration
[8] = 120 min. after the administration

SMILES	inhibition at 0.1 µM [1] [%]	Inhibition against hypertensive reaction by angiotension I, % [2, 3] [%]	Inhibition against hypertensive reaction by angiotension I, % [2, 4] [%]	Inhibition against hypertensive reaction by angiotension I, % [2, 5] [%]	Inhibition against hypertensive reaction by angiotension I, % [2, 6] [%]	Inhibition against hypertensive reaction by angiotension I, % [2, 7] [%]	Inhibition against hypertensive reaction by angiotension I, % [2, 8] [%]
O=C(O)CN1C(=O)[C@@H](N[C@@H](CCC2CCNCC2)C(=O)O)CSc2ccccc21 [Example 73, 3(R)-[1(S)-carboxy-3-(4-piperidyl)propyl]amino-4-oxo-2,3,4,5-tetrahydro-1,5-benzothiazepine-5-acetic acid]	92	–	–	–	–	–	–
O=C(O)CN1C(=O)[C@@H](N[C@@H](CCC2CCOCC2)C(=O)O)CSc2ccccc21 [Example 74]	94	–	–	–	–	–	–
O=C(O)CN1C(=O)[C@@H](N[C@@H](CCC2CCSCC2)C(=O)O)CSc2ccccc21 [Example 75]	89	–	–	–	–	–	–
O=C(O)CN1C(=O)[C@@H](N[C@@H](CCCCN2CCCCC2)C(=O)O)CSc2ccccc21 [Example 82, 3(R)-[1(S)-carboxy-5-piperidinopentyl]amino-4-oxo-2,3,4,5-tetrahydro-1,5-benzothiazepine-5-acetic acid]	92	–	–	–	–	–	–
CCOC(=O)C(CCCC1CCNCC1)NC1CSc2ccccc2N(CC(=O)O)C1=O [Example 90, 3(R)-[1(S)-ethoxycarbonyl-4-(4-piperidyl)butyl]-amino-4-oxo-2,3,4,5-tetrahydro-1,5-berzothiazepine-5-acetic acid.dihydrobromide]	–	100	100	100	90	67	62
O=C(O)CN1C(=O)[C@@H](N[C@@H](CCCC2CCNCC2)C(=O)O)CSc2ccccc21 [Example 91, 3(R)-[1(S)-carboxy-4-(4-piperidyl)butyl]amino-4-oxo-2,3,4,5-tetrahydro-1,5-benzothiazepine-5-acetic acid]	92	–	–	–	–	–	–
O=C(O)CN1C(=O)[C@@H](N[C@@H](CCCCC2CCNCC2)C(=O)O)CSc2ccccc21 [Example 95, 3(R)-[1(S)-carboxy-5-(4-piperidyl)pentyl]amino-4-oxo-2,3,4,5-tetrahydro-1,5-benzothiazepine-5-acetic acid]	98	96	94	99	89	96	91
O=C(O)CN1C(=O)[C@@H](N[C@@H](CCCCCC2CCNCC2)C(=O)O)CSc2ccccc21 [Example 98, 3(R)-[1(S)-carboxy-6-(4-piperidyl)hexyl]amino-4-oxo-2,3,4,5-tetrahydro-1,5-benzothiazepine-5-acetic acid]	98	100	100	100	100	95	79
O=C(O)CN1C(=O)[C@@H](N[C@@H](CCCCCCC2CCNCC2)C(=O)O)CSc2ccccc21 [Example 100, 3(R)-[1(S)-carboxy-7-(4-piperidyl)heptyl]amino-4-oxo-2,3,4,5-tetrahydro-1,5-benzothiazepine-5-acetic acid]	98	–	–	–	–	–	–
